{"source": "patent US10662187B2", "about": "“Bruton's tyrosine kinase inhibitors” (Zibo Biopolar Changsheng Pharmaceutical Co. Ltd., priority 2016, dated 2020)"}
{"molecular_target": "BTK (Homo sapiens (Human), UniProt Q06187)", "sequence (Q06187 whole entry, species assumed)": "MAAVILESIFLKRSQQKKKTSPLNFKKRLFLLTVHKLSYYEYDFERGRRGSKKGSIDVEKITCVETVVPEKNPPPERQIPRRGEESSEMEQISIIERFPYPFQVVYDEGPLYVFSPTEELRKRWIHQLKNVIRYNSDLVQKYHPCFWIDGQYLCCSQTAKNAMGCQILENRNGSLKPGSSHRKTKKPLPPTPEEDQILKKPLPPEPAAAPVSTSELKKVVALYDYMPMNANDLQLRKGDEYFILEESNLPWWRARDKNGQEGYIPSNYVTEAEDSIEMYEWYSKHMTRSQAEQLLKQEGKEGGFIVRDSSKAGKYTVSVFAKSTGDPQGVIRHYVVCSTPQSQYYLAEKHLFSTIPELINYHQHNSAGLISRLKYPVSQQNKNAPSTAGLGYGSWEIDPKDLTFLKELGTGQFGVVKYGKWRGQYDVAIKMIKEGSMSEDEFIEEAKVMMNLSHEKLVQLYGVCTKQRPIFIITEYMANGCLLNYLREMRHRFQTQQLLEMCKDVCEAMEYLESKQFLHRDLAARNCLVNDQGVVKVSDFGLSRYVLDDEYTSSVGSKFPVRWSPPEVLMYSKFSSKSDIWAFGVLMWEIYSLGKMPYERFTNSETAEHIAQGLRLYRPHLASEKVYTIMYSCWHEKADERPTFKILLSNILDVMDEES", "experiment": "Btk kinase assay (HTRF)", "assay_type": "biochemical", "conditions": "[ATP]=80 μM, BTK=3.4 nM; read-out: BTK Inhibition", "protocol": "Btk Kinase Assay and Other Kinases Assay Btk kinase activity was determined using a homogenous time resolved fluorescence (HTRF) methodology. Measurements were performed in a reaction volume of 15 μL using 384-well assay plates. Kinase enzyme, inhibitor, ATP and 1 μM peptide substrate were incubated in a reaction buffer compose of Hepes 50 mM (pH7.0), NaN3 0.02%, BSA 0.01%, Orthocanadate 0.1 mM. […] For each compound, enzyme activity as measured at various concentrations of compound, Negative control reactions were performed in the absence of inhibitor in two replicates and eight no enzyme controls were used to determine baseline fluorescence levels.", "units": {"IC50": "nM"}}
{"smiles": "C=CC(=O)N1CC[C@H](n2nc(-c3ccc(Oc4cccc(Cl)c4)cc3)c3cnccc32)C1", "note": "[Compound 36, (S)-1-(3-(3-(4-(3-chlorophenoxy)phenyl)-1H-pyrazolo[4,3-c]pyridin-1-yl)pyrrolidin-1-yl)prop-2-en-1-one]", "IC50": "10 to 100"}
{"smiles": "C=CC(=O)N1CCC[C@@H](n2nc(-c3ccc(Oc4ccccc4)c(F)c3)c3cnccc32)C1", "note": "[Compound 51, (R)-1-(3-(3-(3-fluoro-4-phenoxyphenyl)-1H-pyrazolo[4,3-c]pyridin-1-yl)piperidin-1-yl)prop-2-en-1-one]", "IC50": "10 to 100"}
{"smiles": "C=CC(=O)N1CC[C@@H](n2nc(-c3ccc(Oc4cccc(OC)c4F)cc3)c3cncc(Cl)c32)C1", "note": "[Compound 27, (R)-1-(3-(7-chloro-3-(4-(2-fluoro-3-methoxyphenoxy)phenyl)-1H-pyrazolo[4,3-c]pyridin-1-yl)pyrrolidin-1-yl)prop-2-en-1-one]", "IC50": "10 to 100"}
{"smiles": "C=CC(=O)N1CC[C@@H](n2nc(-c3ccc(Oc4cccc(OC)c4Cl)cc3)c3cncc(F)c32)C1", "note": "[Compound 68, (R)-1-(3-(3-(4-(2-chloro-3-methoxyphenoxy)phenyl)-7-fluoro-1H-pyrazolo [4,3-c]pyridin-1-yl)pyrrolidin-1-yl)prop-2-en-1-one]", "IC50": "< 10"}
{"smiles": "C=CC(=O)N1CCC[C@@H](n2nc(-c3ccc(Oc4cccc(F)c4C)cc3)c3cnccc32)C1", "note": "[Compound 16, (R)-1-(3-(3-(4-(3-fluoro-2-methylphenoxy)phenyl)-1H-pyrazolo[4,3-c]pyridin-1-yl)piperidin-1-yl)prop-2-en-1-one]", "IC50": "10 to 100"}
{"smiles": "C=CC(=O)N1CCC[C@@H](n2nc(-c3ccc(Oc4cccc(OC)c4F)cc3)c3cncc(OCCCC)c32)C1", "note": "[Compound 76, (R)-1-(3-(7-butoxy-3-(4-(2-fluoro-3-methoxyphenoxy)phenyl)-1H-pyrazolo[4,3-c]pyridin-1-yl)piperidin-1-yl)prop-2-en-1-one]", "IC50": "< 10"}
{"smiles": "C=CC(=O)N1CCC[C@@H](n2nc(-c3ccc(Oc4cccc(OC)c4)cc3)c3cnccc32)C1", "note": "[Compound 65, (R)-1-(3-(3-(4-(3-methoxyphenoxy)phenyl)-1H-pyrazolo[4,3-c]pyridin-1-yl)piperidin-1-yl)prop-2-en-1-one]", "IC50": "10 to 100"}
{"smiles": "C=CC(=O)N1CCC[C@@H](n2nc(-c3ccc(N4CCC(N5CCCCC5)CC4)cc3)c3cnccc32)C1", "note": "[Compound 110, (R)-1-(3-(3-(4-([1,4′-bipiperidin]-1′-yl)phenyl)-1H-pyrazolo [4,3-c]pyridin-1-yl)piperidin-1-yl)prop-2-en-1-one]", "IC50": "10 to 100"}
{"smiles": "CCC(=O)N1CCC[C@@H](n2nc(-c3ccc(Oc4cccc(OC)c4F)cc3)c3cncc(OC)c32)C1", "note": "[Compound 89, (R)-1-(3-(3-(4-(2-fluoro-3-methoxyphenoxy)phenyl)-7-methoxy-1H-pyrazolo[4,3-c]pyridin-1-yl)piperidin-1-yl)propan-1-one]", "IC50": "100 to 1000"}
{"smiles": "C=CC(=O)N1CCC[C@@H](n2nc(-c3ccc(Oc4cccc(F)c4OC)cc3)c3cnccc32)C1", "note": "[Compound 50, (R)-1-(3-(3-(4-(3-fluoro-2-methoxyphenoxy)phenyl)-1H-pyrazolo[4,3-c]pyridin-1-yl)piperidin-1-yl)prop-2-en-1-one]", "IC50": "10 to 100"}
{"smiles": "COc1cccc(Oc2ccc(-c3nn([C@@H]4CCCN(C(=O)C5CC6(C5)CN(S(=O)(=O)c5ccc(C)cc5)C6)C4)c4c(OC)cncc34)cc2)c1F", "note": "[Compound 74, (R)-(3-(3-(4-(2-fluoro-3-methoxyphenoxy)phenyl)-7-methoxy-1H-pyrazolo [4,3-c]pyridin-1-yl)piperidin-1-yl)(2-tosyl-2-azaspiro[3.3]heptan-6-yl)methanone]", "IC50": "100 to 1000"}
{"smiles": "C=CC(=O)N1CC[C@H](n2nc(-c3ccc(Oc4cccc(Cl)c4Cl)cc3)c3cnccc32)C1", "note": "[Compound 42, (S)-1-(3-(3-(4-(2,3-dichlorophenoxy)phenyl)-1H-pyrazolo[4,3-c]pyridin-1-yl)pyrrolidin-1-yl)prop-2-en-1-one]", "IC50": "< 10"}
